From the kinase profiling compilation of Christmann-Franck et al. (2016)
“And” between values parts separate entries of the source, which are not always exact repeats. Identical values can stand only once.

Experiments:
Test in all cases: radiometric filter-binding kinase assay, Kinase HotSpot
Details in all cases: compound 0.5 µM; ATP 10 µM
[1] = target: AKT3 (human) (UniProt Q9Y243)
[2] = target: HCK (human) (UniProt P08631)
[3] = target: SRPK1 (human) (UniProt Q96SB4)
[4] = target: FRK (human) (UniProt P42685)
[5] = target: AURKB (human) (UniProt Q96GD4)
Chain of AURKB (human) (Q96GD4 whole entry, looked up): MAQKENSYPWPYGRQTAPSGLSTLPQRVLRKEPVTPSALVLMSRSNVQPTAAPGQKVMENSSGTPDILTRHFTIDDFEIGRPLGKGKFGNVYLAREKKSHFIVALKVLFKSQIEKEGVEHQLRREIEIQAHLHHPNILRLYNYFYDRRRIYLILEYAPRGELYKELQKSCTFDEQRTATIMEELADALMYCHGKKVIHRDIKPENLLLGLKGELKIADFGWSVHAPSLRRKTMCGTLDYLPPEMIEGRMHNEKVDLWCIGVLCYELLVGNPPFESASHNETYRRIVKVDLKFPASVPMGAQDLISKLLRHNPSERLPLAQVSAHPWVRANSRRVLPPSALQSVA

[6] = target: FYN (human) (UniProt P06241)
[7] = target: PTK2B (human) (UniProt Q14289)
[8] = target: MKNK2 (human) (UniProt Q9HBH9)
[9] = target: PASK (human) (UniProt Q96RG2)
[10] = target: CSNK2A2 (human) (UniProt P19784)
[11] = target: PNCK (human) (UniProt Q6P2M8)
[12] = target: WEE1 (human) (UniProt P30291)
[13] = target: TYK2 JH1 catalytic (human) (UniProt P29597)
[14] = target: VRK1 (human) (UniProt Q99986)
[15] = target: MET (human) (UniProt P08581)
[16] = target: ABL2 (human) (UniProt P42684)
[17] = target: LIMK1 (human) (UniProt P53667)
[18] = target: EPHA6 (human) (UniProt Q9UF33)
[19] = target: DCLK2 (human) (UniProt Q8N568)
Chain of DCLK2 (human) (Q8N568 whole entry, looked up): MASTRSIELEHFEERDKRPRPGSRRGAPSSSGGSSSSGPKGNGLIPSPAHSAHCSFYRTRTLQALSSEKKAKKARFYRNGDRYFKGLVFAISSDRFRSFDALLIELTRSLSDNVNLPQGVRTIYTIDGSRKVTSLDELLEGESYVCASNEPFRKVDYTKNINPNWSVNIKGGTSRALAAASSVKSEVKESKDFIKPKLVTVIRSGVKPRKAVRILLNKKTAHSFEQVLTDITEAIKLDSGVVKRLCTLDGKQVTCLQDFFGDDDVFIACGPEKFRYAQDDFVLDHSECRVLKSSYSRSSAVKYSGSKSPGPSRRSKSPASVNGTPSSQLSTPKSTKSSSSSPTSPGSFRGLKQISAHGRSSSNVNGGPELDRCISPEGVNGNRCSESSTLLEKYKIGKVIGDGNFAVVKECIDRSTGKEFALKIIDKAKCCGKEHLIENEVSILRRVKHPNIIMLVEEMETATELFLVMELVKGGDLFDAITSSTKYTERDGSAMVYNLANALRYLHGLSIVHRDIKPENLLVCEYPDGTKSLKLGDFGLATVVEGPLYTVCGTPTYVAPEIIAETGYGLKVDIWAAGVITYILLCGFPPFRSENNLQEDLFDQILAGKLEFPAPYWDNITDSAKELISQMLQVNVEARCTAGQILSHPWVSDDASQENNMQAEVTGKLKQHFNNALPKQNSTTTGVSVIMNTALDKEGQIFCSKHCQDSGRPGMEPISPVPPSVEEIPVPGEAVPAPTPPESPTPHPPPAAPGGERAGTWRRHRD

[20] = target: JAK1 JH1 catalytic (human) (UniProt P23458)
[21] = target: FGFR3 (human) (UniProt P22607)
[22] = target: DYRK4 (human) (UniProt Q9NR20)
[23] = target: ULK3 (human) (UniProt Q6PHR2)
[24] = target: FGFR1 (human) (UniProt P11362)
[25] = target: NUAK2 (human) (UniProt Q9H093)
[26] = target: MYO3B (human) (UniProt Q8WXR4)
Chain of MYO3B (human) (Q8WXR4 whole entry, looked up): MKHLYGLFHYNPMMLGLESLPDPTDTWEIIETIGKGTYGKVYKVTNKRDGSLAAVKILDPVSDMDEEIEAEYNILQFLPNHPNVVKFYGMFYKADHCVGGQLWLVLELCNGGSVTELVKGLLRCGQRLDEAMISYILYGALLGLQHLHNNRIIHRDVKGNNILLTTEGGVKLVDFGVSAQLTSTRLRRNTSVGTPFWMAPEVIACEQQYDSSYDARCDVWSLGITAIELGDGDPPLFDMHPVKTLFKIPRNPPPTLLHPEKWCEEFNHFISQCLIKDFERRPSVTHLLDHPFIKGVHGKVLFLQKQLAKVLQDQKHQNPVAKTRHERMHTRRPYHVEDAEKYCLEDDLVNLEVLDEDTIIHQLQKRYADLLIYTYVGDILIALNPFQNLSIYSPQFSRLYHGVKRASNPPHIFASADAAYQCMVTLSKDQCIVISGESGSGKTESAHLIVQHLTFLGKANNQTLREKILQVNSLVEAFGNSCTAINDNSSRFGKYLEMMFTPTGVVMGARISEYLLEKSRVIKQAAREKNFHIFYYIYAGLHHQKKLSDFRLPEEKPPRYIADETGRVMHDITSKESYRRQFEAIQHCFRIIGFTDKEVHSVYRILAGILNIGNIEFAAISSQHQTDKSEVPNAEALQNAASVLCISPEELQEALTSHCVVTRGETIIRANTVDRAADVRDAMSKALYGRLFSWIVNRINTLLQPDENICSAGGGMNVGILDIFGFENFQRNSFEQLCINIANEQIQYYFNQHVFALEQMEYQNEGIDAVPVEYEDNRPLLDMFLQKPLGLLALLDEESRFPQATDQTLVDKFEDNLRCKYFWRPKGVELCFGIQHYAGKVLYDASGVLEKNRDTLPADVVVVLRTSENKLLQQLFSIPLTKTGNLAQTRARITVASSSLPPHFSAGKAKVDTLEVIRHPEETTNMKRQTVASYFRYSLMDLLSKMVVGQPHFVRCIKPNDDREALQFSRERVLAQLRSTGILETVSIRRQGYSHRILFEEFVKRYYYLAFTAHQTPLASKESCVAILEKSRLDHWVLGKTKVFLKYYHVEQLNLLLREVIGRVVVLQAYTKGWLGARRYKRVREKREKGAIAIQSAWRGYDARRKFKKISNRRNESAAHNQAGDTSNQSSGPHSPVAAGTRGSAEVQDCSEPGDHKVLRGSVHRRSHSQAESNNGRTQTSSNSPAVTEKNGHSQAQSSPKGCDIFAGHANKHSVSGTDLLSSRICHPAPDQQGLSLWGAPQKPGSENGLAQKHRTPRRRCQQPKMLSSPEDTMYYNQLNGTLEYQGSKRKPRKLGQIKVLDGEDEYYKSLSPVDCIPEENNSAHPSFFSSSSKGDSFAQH

[27] = target: GSK3B (human) (UniProt P49841)
[28] = target: CSNK1G1 (human) (UniProt Q9HCP0)
[29] = target: PRKG1 (human) (UniProt Q13976)
Chain of PRKG1 (human) (Q13976 whole entry, looked up): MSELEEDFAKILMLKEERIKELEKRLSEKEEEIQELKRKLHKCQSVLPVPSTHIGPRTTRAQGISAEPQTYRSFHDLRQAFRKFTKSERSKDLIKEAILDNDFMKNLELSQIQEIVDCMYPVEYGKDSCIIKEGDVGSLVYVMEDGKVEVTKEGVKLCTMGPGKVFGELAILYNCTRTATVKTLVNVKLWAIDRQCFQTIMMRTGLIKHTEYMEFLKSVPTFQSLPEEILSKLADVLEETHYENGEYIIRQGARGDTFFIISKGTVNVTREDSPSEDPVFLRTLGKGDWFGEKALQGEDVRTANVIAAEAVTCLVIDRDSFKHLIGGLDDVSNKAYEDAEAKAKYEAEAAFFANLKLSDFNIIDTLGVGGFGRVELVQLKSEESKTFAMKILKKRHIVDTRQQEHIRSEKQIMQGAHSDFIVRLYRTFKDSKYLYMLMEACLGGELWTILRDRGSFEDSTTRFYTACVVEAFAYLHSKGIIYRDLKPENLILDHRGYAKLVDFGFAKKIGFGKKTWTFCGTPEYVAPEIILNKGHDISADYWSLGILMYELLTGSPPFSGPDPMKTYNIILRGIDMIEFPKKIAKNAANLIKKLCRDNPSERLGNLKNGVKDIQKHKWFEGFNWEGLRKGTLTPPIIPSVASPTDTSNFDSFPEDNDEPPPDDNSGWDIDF

[30] = target: BMX (human) (UniProt P51813)
[31] = target: EPHB2 (human) (UniProt P29323)
[32] = target: CAMKK1 (human) (UniProt Q8N5S9)
[33] = target: PLK2 (human) (UniProt Q9NYY3)
[34] = target: WNK3 (human) (UniProt Q9BYP7)
[35] = target: MAP2K1 (human) (UniProt Q02750)
[36] = target: MAPK13 (human) (UniProt O15264)
[37] = target: PRKACG (human) (UniProt P22612)
[38] = target: EPHA1 (human) (UniProt P21709)
Chain of EPHA1 (human) (P21709 whole entry, looked up): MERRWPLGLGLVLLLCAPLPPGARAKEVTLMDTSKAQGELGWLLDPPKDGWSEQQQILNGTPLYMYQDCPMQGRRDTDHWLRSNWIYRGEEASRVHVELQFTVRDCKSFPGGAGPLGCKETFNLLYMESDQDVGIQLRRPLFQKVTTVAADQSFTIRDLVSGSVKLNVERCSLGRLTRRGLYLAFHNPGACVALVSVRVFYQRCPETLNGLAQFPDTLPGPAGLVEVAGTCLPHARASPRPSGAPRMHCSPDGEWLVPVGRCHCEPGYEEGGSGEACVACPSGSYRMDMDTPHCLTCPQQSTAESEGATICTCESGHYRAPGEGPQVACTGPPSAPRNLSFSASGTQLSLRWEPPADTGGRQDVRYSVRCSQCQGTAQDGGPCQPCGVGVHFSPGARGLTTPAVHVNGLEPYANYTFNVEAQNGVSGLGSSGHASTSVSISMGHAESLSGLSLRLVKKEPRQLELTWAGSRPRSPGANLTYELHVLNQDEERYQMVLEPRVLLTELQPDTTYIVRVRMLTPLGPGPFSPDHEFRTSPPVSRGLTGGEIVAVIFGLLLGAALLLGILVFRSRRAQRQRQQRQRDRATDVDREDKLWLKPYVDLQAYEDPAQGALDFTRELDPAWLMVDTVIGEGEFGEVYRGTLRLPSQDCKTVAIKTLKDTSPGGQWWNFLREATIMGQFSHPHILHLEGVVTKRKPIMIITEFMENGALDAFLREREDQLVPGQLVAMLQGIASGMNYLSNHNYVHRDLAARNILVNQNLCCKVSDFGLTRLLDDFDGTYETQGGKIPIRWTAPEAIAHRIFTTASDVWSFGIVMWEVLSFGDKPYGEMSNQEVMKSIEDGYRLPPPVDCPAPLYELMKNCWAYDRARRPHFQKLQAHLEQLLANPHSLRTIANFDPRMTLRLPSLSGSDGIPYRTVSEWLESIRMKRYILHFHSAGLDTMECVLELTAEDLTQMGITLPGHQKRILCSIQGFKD

[39] = target: GSG2 (human) (UniProt Q8TF76)
[40] = target: PIM3 (human) (UniProt Q86V86)
[41] = target: FES (human) (UniProt P07332)
[42] = target: STK16 (human) (UniProt O75716)
Chain of STK16 (human) (O75716 whole entry, looked up): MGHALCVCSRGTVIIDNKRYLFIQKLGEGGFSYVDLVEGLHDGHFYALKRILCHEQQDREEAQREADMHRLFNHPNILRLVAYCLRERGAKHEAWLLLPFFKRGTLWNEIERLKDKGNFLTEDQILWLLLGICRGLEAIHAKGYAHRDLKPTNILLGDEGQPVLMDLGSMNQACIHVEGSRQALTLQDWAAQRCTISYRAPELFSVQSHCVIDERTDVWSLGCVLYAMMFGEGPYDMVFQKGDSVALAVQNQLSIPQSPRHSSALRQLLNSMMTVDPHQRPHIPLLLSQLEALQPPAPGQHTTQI

Chain of SRPK1 (human) (Q96SB4 whole entry, looked up): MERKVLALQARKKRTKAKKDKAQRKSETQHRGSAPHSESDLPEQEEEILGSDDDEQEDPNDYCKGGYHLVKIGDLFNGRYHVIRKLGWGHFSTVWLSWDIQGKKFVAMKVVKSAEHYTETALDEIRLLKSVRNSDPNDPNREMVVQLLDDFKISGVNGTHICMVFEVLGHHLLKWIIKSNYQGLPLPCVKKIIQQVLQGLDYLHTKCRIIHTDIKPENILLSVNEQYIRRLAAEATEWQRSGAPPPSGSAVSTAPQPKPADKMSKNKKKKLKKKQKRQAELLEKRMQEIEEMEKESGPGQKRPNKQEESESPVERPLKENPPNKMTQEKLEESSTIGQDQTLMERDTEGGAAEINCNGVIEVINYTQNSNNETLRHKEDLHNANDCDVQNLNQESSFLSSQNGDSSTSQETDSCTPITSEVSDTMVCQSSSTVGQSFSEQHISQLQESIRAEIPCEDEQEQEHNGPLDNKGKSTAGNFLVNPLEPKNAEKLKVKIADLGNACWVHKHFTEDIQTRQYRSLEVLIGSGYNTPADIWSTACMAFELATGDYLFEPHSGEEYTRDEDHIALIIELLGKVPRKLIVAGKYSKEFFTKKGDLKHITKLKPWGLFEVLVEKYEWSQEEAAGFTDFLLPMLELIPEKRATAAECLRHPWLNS

## CS(=O)(=O)CCNCc1ccc(-c2ccc3ncnc(Nc4ccc(OCc5cccc(F)c5)c(Cl)c4)c3c2)o1
[1]
  residual activity: 83.5%
[2]
  residual activity: 86.5%
[3]
  residual activity: 100%
[4]
  residual activity: 104%
[5]
  residual activity: 98.4%
[6]
  residual activity: 99.4%
[7]
  residual activity: 101%
[8]
  residual activity: 97.3%
[9]
  residual activity: 101%
[10]
  residual activity: 101%
[11]
  residual activity: 98.1%
[12]
  residual activity: 97.5%
[13]
  residual activity: 95.5%
[14]
  residual activity: 101%
[15]
  residual activity: 84.1%
[16]
  residual activity: 97.3%
[17]
  residual activity: 95.2%
[18]
  residual activity: 115%
[19]
  residual activity: 101%
[20]
  residual activity: 98%
[21]
  residual activity: 96.7%
[22]
  residual activity: 103%
[23]
  residual activity: 106%
[24]
  residual activity: 102%
[25]
  residual activity: 95.1%
[26]
  residual activity: 96.1%
[27]
  residual activity: 103%
[28]
  residual activity: 105%
[29]
  residual activity: 95.4% and 99.7%
[30]
  residual activity: 105%
[31]
  residual activity: 101%
[32]
  residual activity: 98.8%
[33]
  residual activity: 103%
[34]
  residual activity: 104%
[35]
  residual activity: 105%
[36]
  residual activity: 91.1%
[37]
  residual activity: 110%
[38]
  residual activity: 99.3%
[39]
  residual activity: 66.5%
[40]
  residual activity: 93.7%
[41]
  residual activity: 104%
[42]
  residual activity: 97.1%

## Fc1ccc(-c2nc3n(c2-c2ccncc2)CCS3)cc1
[1]
  residual activity: 109%
[2]
  residual activity: 101%
[3]
  residual activity: 100%
[4]
  residual activity: 104%
[5]
  residual activity: 98.5%
[6]
  residual activity: 108%
[7]
  residual activity: 106%
[8]
  residual activity: 84.9%
[9]
  residual activity: 109%
[10]
  residual activity: 105%
[11]
  residual activity: 90.3%
[12]
  residual activity: 92.2%
[13]
  residual activity: 107%
[14]
  residual activity: 86.8%
[15]
  residual activity: 92.7%
[16]
  residual activity: 91%
[17]
  residual activity: 89.3%
[18]
  residual activity: 94.7%
[19]
  residual activity: 97.4%
[20]
  residual activity: 106%
[21]
  residual activity: 91.8%
[22]
  residual activity: 106%
[23]
  residual activity: 79.2%
[24]
  residual activity: 93.4%
[25]
  residual activity: 135%
[26]
  residual activity: 102%
[27]
  residual activity: 105%
[28]
  residual activity: 86.6%
[29]
  residual activity: 103% and 95.9%
[30]
  residual activity: 104%
[31]
  residual activity: 99.3%
[32]
  residual activity: 113%
[33]
  residual activity: 103%
[34]
  residual activity: 105%
[35]
  residual activity: 93.6%
[36]
  residual activity: 111%
[37]
  residual activity: 116%
[38]
  residual activity: 98.2%
[39]
  residual activity: 104%
[40]
  residual activity: 105%
[41]
  residual activity: 104%
[42]
  residual activity: 106%
